Species: Rattus norvegicus
Assay: Open TG-GATES - Regimen: Daily Repeat
Type: toxicity, organism-based, Sprague-Dawley
Design: regimen Daily Repeat, gender Male, age 6 weeks
Details: in vivo, po, route gavage; for APTT / Bas / Eos / Fbg / Hb / Ht / Lym / MCHC / MCV / Mono / Neu / PT / Plat / RBC / Ret / WBC: tissue Blood; for KIDNEY_L / KIDNEY_R / KIDNEY_TOTAL: tissue Kidney; for LIVER: tissue Liver; for ALP / ALT / AST / BUN / CRE / Ca / Cl / DBIL / GLC / IP / K / LDH / Na / PL / RALB / TBIL / TG / TP / gamma-GTP: tissue Plasma
[1] = 0 mg/kg, 72 h, dose level Control, time 3 day
[2] = 0 mg/kg, […], dose level Control, time 7 day
[3] = 0 mg/kg, […], dose level Control, time 14 day
[4] = 0 mg/kg, […], dose level Control, time 28 day
[5] = 100 mg/kg, 72 h, dose level Low, time 3 day
[6] = 100 mg/kg, […], dose level Low, time 7 day
[7] = 100 mg/kg, […], dose level Low, time 14 day
[8] = 100 mg/kg, […], dose level Low, time 28 day

## CN(C)C(=N)N=C(N)N [METFORMIN]
[1]
  TERMINAL_BW: 224.4 g
  APTT: 16.8 s
  Bas: 0.2%
  Eos: 1%
  Fbg: 246.8 mg/dL
  Hb: 13.1 g/dL
  Ht: 38.7%
  Lym: 75.4%
  MCHC: 34%
  MCV: 64.1 fL
  Mono: 3.4%
  Neu: 19.6%
  PT: 12.6 s
  Plat: 121.6 x10_4/uL
  RBC: 603.2 x10_4/ul
  Ret: 6.9%
  WBC: 114.3 x10_2/uL
  KIDNEY_L: 1 g
  KIDNEY_R: 1 g
  KIDNEY_TOTAL: 2 g
  LIVER: 10.6 g
  ALP: 1345.6 IU/L
  ALT: 69.8 IU/L
  AST: 80.6 IU/L
  BUN: 13 mg/dL
  CRE: 0.2 mg/dL
  Ca: 11 mg/dL
  Cl: 104.6 meq/L
  DBIL: 0.014 mg/dL
  GLC: 184.8 mg/dL
  IP: 8.5 mg/dL
  K: 4 meq/L
  LDH: 69.8 IU/L
  Na: 140.8 meq/L
  PL: 143.6 mg/dL
  RALB: 2.5 g/dL
  TBIL: 0.034 mg/dL
  TG: 71.2 mg/dL
  TP: 5.5 g/dL
  gamma-GTP: 1 IU/L
[2]
  TERMINAL_BW: 255.4 g
  APTT: 16.6 s
  Bas: 0%
  Eos: 1.2%
  Fbg: 272.8 mg/dL
  Hb: 13.6 g/dL
  Ht: 40.1%
  Lym: 77.8%
  MCHC: 34%
  MCV: 64.1 fL
  Mono: 3%
  Neu: 17.6%
  PT: 12 s
  Plat: 126.8 x10_4/uL
  RBC: 626.4 x10_4/ul
  Ret: 6%
  WBC: 90.7 x10_2/uL
  KIDNEY_L: 1 g
  KIDNEY_R: 1 g
  KIDNEY_TOTAL: 2.1 g
  LIVER: 11.7 g
  ALP: 1433.2 IU/L
  ALT: 43.2 IU/L
  AST: 69.6 IU/L
  BUN: 16.4 mg/dL
  CRE: 0.2 mg/dL
  Ca: 11.3 mg/dL
  Cl: 105.2 meq/L
  DBIL: 0.014 mg/dL
  GLC: 187 mg/dL
  IP: 7.8 mg/dL
  K: 4.3 meq/L
  LDH: 66.6 IU/L
  Na: 141.4 meq/L
  PL: 145.2 mg/dL
  RALB: 2.7 g/dL
  TBIL: 0.034 mg/dL
  TG: 91 mg/dL
  TP: 5.9 g/dL
  gamma-GTP: 1 IU/L
[3]
  TERMINAL_BW: 310.2 g
  APTT: 18.3 s
  Bas: 0%
  Eos: 0.8%
  Fbg: 252.2 mg/dL
  Hb: 14.1 g/dL
  Ht: 40.7%
  Lym: 77.8%
  MCHC: 34.5%
  MCV: 60.5 fL
  Mono: 3.4%
  Neu: 17.4%
  PT: 12.3 s
  Plat: 123 x10_4/uL
  RBC: 674 x10_4/ul
  Ret: 4.8%
  WBC: 104.1 x10_2/uL
  KIDNEY_L: 1.2 g
  KIDNEY_R: 1.2 g
  KIDNEY_TOTAL: 2.4 g
  LIVER: 14.4 g
  ALP: 1342.2 IU/L
  ALT: 43.2 IU/L
  AST: 81 IU/L
  BUN: 16.4 mg/dL
  CRE: 0.2 mg/dL
  Ca: 11 mg/dL
  Cl: 105.2 meq/L
  DBIL: 0.014 mg/dL
  GLC: 188.2 mg/dL
  IP: 7.1 mg/dL
  K: 4 meq/L
  LDH: 168 IU/L
  Na: 142.8 meq/L
  PL: 150.6 mg/dL
  RALB: 2.7 g/dL
  TBIL: 0.034 mg/dL
  TG: 139.2 mg/dL
  TP: 6 g/dL
  gamma-GTP: 1 IU/L
[4]
  TERMINAL_BW: 386.6 g
  APTT: 17.2 s
  Bas: 0.2%
  Eos: 1.4%
  Fbg: 260 mg/dL
  Hb: 15 g/dL
  Ht: 43.2%
  Lym: 78.6%
  MCHC: 34.7%
  MCV: 56.9 fL
  Mono: 2.6%
  Neu: 16.8%
  PT: 12.1 s
  Plat: 103.4 x10_4/uL
  RBC: 759.6 x10_4/ul
  Ret: 2.5%
  WBC: 118 x10_2/uL
  KIDNEY_L: 1.4 g
  KIDNEY_R: 1.4 g
  KIDNEY_TOTAL: 2.8 g
  LIVER: 15.6 g
  ALP: 1085 IU/L
  ALT: 41.8 IU/L
  AST: 60.8 IU/L
  BUN: 16 mg/dL
  CRE: 0.2 mg/dL
  Ca: 11.1 mg/dL
  Cl: 105.4 meq/L
  DBIL: 0.014 mg/dL
  GLC: 176.2 mg/dL
  IP: 6.6 mg/dL
  K: 3.9 meq/L
  LDH: 51.8 IU/L
  Na: 145 meq/L
  PL: 143.4 mg/dL
  RALB: 2.7 g/dL
  TBIL: 0.036 mg/dL
  TG: 134.2 mg/dL
  TP: 6.1 g/dL
  gamma-GTP: 1 IU/L
[5]
  TERMINAL_BW: 222.9 g
  APTT: 16.7 s
  Bas: 0.2%
  Eos: 0.6%
  Fbg: 255 mg/dL
  Hb: 13.3 g/dL
  Ht: 39.3%
  Lym: 79%
  MCHC: 33.9%
  MCV: 64.1 fL
  Mono: 3%
  Neu: 16.6%
  PT: 12.6 s
  Plat: 114.7 x10_4/uL
  RBC: 612.6 x10_4/ul
  Ret: 6.7%
  WBC: 119.8 x10_2/uL
  KIDNEY_L: 0.9 g
  KIDNEY_R: 0.9 g
  KIDNEY_TOTAL: 1.9 g
  LIVER: 10.6 g
  ALP: 1574.6 IU/L
  ALT: 56.2 IU/L
  AST: 78.6 IU/L
  BUN: 15 mg/dL
  CRE: 0.2 mg/dL
  Ca: 11 mg/dL
  Cl: 105.6 meq/L
  DBIL: 0.012 mg/dL
  GLC: 173.2 mg/dL
  IP: 8.3 mg/dL
  K: 4 meq/L
  LDH: 80.4 IU/L
  Na: 141.8 meq/L
  PL: 141.6 mg/dL
  RALB: 2.6 g/dL
  TBIL: 0.03 mg/dL
  TG: 72.8 mg/dL
  TP: 5.5 g/dL
  gamma-GTP: 1 IU/L
[6]
  TERMINAL_BW: 255.8 g
  APTT: 18.8 s
  Bas: 0%
  Eos: 1%
  Fbg: 277.8 mg/dL
  Hb: 13.6 g/dL
  Ht: 40.1%
  Lym: 77.8%
  MCHC: 33.9%
  MCV: 63 fL
  Mono: 3.4%
  Neu: 17.8%
  PT: 12.1 s
  Plat: 130 x10_4/uL
  RBC: 638 x10_4/ul
  Ret: 5.1%
  WBC: 97.2 x10_2/uL
  KIDNEY_L: 1 g
  KIDNEY_R: 1 g
  KIDNEY_TOTAL: 2.1 g
  LIVER: 12.7 g
  ALP: 1216.2 IU/L
  ALT: 59.4 IU/L
  AST: 80.2 IU/L
  BUN: 15.2 mg/dL
  CRE: 0.2 mg/dL
  Ca: 10.8 mg/dL
  Cl: 105.8 meq/L
  DBIL: 0.012 mg/dL
  GLC: 189.8 mg/dL
  IP: 7.9 mg/dL
  K: 4.1 meq/L
  LDH: 69.6 IU/L
  Na: 142 meq/L
  PL: 144 mg/dL
  RALB: 2.6 g/dL
  TBIL: 0.028 mg/dL
  TG: 96.4 mg/dL
  TP: 5.7 g/dL
  gamma-GTP: 0.8 IU/L
[7]
  TERMINAL_BW: 319.6 g
  APTT: 17.4 s
  Bas: 0%
  Eos: 1.2%
  Fbg: 255.2 mg/dL
  Hb: 13.9 g/dL
  Ht: 40.1%
  Lym: 77.6%
  MCHC: 34.6%
  MCV: 60.5 fL
  Mono: 2.8%
  Neu: 17.6%
  PT: 12.2 s
  Plat: 122.5 x10_4/uL
  RBC: 662.2 x10_4/ul
  Ret: 5%
  WBC: 109.5 x10_2/uL
  KIDNEY_L: 1.3 g
  KIDNEY_R: 1.3 g
  KIDNEY_TOTAL: 2.6 g
  LIVER: 15.1 g
  ALP: 1413 IU/L
  ALT: 51.8 IU/L
  AST: 70.6 IU/L
  BUN: 16.2 mg/dL
  CRE: 0.2 mg/dL
  Ca: 11 mg/dL
  Cl: 104 meq/L
  DBIL: 0.014 mg/dL
  GLC: 182.4 mg/dL
  IP: 7.2 mg/dL
  K: 3.9 meq/L
  LDH: 78.6 IU/L
  Na: 142.6 meq/L
  PL: 161 mg/dL
  RALB: 2.7 g/dL
  TBIL: 0.03 mg/dL
  TG: 116 mg/dL
  TP: 6 g/dL
  gamma-GTP: 1.2 IU/L
[8]
  TERMINAL_BW: 415.8 g
  APTT: 17.7 s
  Bas: 0.2%
  Eos: 1%
  Fbg: 259.2 mg/dL
  Hb: 15 g/dL
  Ht: 43%
  Lym: 76.6%
  MCHC: 34.8%
  MCV: 56.3 fL
  Mono: 3%
  Neu: 18.6%
  PT: 11.9 s
  Plat: 100.3 x10_4/uL
  RBC: 764.2 x10_4/ul
  Ret: 2.6%
  WBC: 134 x10_2/uL
  KIDNEY_L: 1.5 g
  KIDNEY_R: 1.5 g
  KIDNEY_TOTAL: 3 g
  LIVER: 17.9 g
  ALP: 1072.4 IU/L
  ALT: 46.4 IU/L
  AST: 67.8 IU/L
  BUN: 17.4 mg/dL
  CRE: 0.2 mg/dL
  Ca: 11.2 mg/dL
  Cl: 104.6 meq/L
  DBIL: 0.014 mg/dL
  GLC: 184.2 mg/dL
  IP: 6.7 mg/dL
  K: 3.9 meq/L
  LDH: 56.8 IU/L
  Na: 145.6 meq/L
  PL: 165.4 mg/dL
  RALB: 2.8 g/dL
  TBIL: 0.04 mg/dL
  TG: 183.8 mg/dL
  TP: 6.3 g/dL
  gamma-GTP: 1 IU/L

— ChEMBL document CHEMBL3885861, “Open TG-GATES”
